Source: patent US10039753B2, “Imidazo[4,5-c]quinoline and imidazo[4,5-c][1,5]naphthyridine derivatives as LRRK2 inhibitors” (Pfizer Inc., priority 2015, dated 2018)
pIC50: −log10 of the molar value. Counter-ions that a name gives are not always drawn. Like-named read-outs stand apart in the source and are kept apart here.

What was measured:
mutant G2019S LRRK2 = mutant G2019S LRRK2 (Homo sapiens, UniProt Q5S007, G2019S); experiment: LRRK2 Assay, Format 2 (Lantha Screen), G2019S mutant; format: biochemical; parameters: purchased Invitrogen PV4881
Sequence of mutant G2019S LRRK2 (Q5S007 970-2527 G2019S limits assumed): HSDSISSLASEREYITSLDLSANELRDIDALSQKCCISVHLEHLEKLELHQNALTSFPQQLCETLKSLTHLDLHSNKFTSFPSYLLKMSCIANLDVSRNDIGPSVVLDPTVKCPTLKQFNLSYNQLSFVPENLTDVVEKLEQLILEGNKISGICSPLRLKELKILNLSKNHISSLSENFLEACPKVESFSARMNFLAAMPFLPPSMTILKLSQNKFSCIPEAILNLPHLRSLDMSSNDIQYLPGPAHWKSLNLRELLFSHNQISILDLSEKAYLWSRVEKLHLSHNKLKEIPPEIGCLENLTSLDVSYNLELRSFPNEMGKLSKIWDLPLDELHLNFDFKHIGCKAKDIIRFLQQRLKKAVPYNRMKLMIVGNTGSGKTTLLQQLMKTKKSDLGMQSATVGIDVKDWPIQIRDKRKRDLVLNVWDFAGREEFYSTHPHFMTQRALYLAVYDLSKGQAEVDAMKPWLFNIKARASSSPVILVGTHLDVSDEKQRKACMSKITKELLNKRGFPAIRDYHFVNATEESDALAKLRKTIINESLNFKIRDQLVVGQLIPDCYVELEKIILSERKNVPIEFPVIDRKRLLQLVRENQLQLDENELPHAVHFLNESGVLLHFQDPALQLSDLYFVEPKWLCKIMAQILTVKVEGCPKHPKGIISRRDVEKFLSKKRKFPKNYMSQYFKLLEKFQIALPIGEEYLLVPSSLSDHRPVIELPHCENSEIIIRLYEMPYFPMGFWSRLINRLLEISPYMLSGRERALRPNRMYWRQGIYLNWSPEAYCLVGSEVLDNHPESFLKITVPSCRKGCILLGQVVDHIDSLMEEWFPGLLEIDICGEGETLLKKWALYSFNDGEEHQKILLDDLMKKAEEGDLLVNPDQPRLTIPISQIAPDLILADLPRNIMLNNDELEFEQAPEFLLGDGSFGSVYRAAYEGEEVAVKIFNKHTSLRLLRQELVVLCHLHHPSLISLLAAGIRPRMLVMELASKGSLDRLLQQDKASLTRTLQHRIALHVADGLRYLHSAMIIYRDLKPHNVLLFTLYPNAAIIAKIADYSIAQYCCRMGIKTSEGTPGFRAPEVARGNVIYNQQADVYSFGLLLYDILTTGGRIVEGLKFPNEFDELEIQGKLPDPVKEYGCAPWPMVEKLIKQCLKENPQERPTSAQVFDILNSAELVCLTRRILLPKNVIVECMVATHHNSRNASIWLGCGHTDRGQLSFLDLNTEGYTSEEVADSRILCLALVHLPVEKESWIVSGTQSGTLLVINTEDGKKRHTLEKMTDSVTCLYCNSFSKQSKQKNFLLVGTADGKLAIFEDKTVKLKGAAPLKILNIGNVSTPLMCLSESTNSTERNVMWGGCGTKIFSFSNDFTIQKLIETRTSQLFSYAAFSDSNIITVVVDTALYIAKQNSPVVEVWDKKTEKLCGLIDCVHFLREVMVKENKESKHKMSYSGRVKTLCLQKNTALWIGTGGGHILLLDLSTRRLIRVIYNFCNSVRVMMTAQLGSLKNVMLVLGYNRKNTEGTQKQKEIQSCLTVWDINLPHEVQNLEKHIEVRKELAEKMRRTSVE

[1] = biological target: T1, GST-tagged truncated LRRK2 (Homo sapiens, UniProt Q5S007); experiment: LRRK2 Assay, Format 2 (Lantha Screen), WT; format: biochemical
T1 construct: GST-tagged truncated LRRK2 from Invitrogen (Cat # PV4874); GST; purchased Invitrogen PV4874
T1 sequence (Q5S007 970-2527 limits assumed): as the sequence (Q5S007 970-2527 G2019S limits assumed) above, with S1050G counted along it

[2] = geometric mean of 2-4 determinations unless otherwise indicated (a: >=5; b: single determination), read-out: LRRK2, Format 2 G2019S IC50
[3] = geometric mean of 2-4 determinations unless otherwise indicated (a: >=5; b: single determination)

SMILES	pIC50 (mutant G2019S LRRK2; [2])	pIC50 [1, 3]	pIC50 (mutant G2019S LRRK2; 100 nM LRRKtide, 1000 mM ATP (so in the source), 30 minutes at room temperature, read-out: LRRK2, Format 2 G2019S mutant IC50)	pIC50 ([1]; 100 nM LRRKtide, 1000 mM ATP (so in the source), 30 minutes at room temperature)
CC(C)c1cn(Cc2nc3cnc4ccc(C#N)cc4c3n2[C@@H]2CCO[C@H](C)C2)nn1 [Example 126, 1-[(2R,4R)-2-methyltetrahydro-2H-pyran-4-yl]-2-{[4-(propan-2-yl)-1H-1,2,3-triazol-1-yl]methyl}-1H-imidazo[4,5-c]quinoline-8-carbonitrile, formate salt]	8.09	8.08	–	–
C[C@@H]1C[C@H](n2c(Cc3coc(C4CC4)n3)nc3cnc4ccc(C#N)cc4c32)CCO1 [Example 122, 2-[(2-cyclopropyl-1,3-oxazol-4-yl)methyl]-1-[(2R,4R)-2-methyltetrahydro-2H-pyran-4-yl]-1H-imidazo[4,5-c]quinoline-8-carbonitrile, formate salt]	8.43	8.37	–	–
C[C@@H]1C[C@H](n2c(Cc3cc(CO)on3)nc3cnc4ccc(Cl)cc4c32)CCO1 [Example 138]	8.43	8.54	–	–
Cc1cn(Cc2nc3cnc4ccc(C#N)cc4c3n2C2CCCC2(F)F)nn1 (single isomer, unassigned; ent-2) [Example 197, 1-(2,2-difluorocyclopentyl)-2-[(4-methyl-1H-1,2,3-triazol-1-yl)methyl]-1H-imidazo[4,5-c]quinoline-8-carbonitrile, ENT-2]	7.73	7.90	–	–
Cc1nc(Cc2nc3cnc4ccc(C#N)cc4c3n2[C@@H]2CCO[C@H](C)C2)c(C)o1 [Example 230, 2-[(2,5-dimethyl-1,3-oxazol-4-yl)methyl]-1-[(2R,4R)-2-methyltetrahydro-2H-pyran-4-yl]-1H-imidazo[4,5-c]quinoline-8-carbonitrile, formate salt]	8.07	7.94	–	–
C[C@@H]1C[C@H](n2c(Cc3ccc(C(F)(F)F)cn3)nc3cnc4ccc(C#N)cc4c32)CCO1 [Example 208, 1-[(2R,4R)-2-methyltetrahydro-2H-pyran-4-yl]-2-{[5-(trifluoromethyl)pyridin-2-yl]methyl}-1H-imidazo[4,5-c]quinoline-8-carbonitrile]	7.84	7.82	–	–
Cc1cc(Cc2nc3cnc4ccc(F)cc4c3n2[C@@H]2CCO[C@H](C)C2)no1 [Example 200, 8-fluoro-2-[(5-methyl-1,2-oxazol-3-yl)methyl]-1-[(2R,4R)-2-methyltetrahydro-2H-pyran-4-yl]-1H-imidazo[4,5-c]quinoline]	7.84	7.91	–	–
Cc1cnn(Cc2nc3cnc4ccc(F)cc4c3n2[C@@H]2CCO[C@H](C)C2)c1 [Example 198, 8-fluoro-2-[(4-methyl-1H-pyrazol-1-yl)methyl]-1-[(2R,4R)-2-methyltetrahydro-2H-pyran-4-yl]-1H-imidazo[4,5-c]quinoline]	7.77	7.82	–	–
Cc1cc(Cc2nc3cnc4ccc(C#N)cc4c3n2[C@@H]2CC[C@H](F)C2)on1 (single isomer, unassigned; ent-1) [Example 118, 1-(cis-3-fluorocyclopentyl)-2-[(3-methyl-1,2-oxazol-5-yl)methyl]-1H-imidazo[4,5-c]quinoline-8-carbonitrile, ENT-1]	8.21	8.38	–	–
Cc1cnn(Cc2nc3cnc4ccc(C#N)cc4c3n2[C@H]2CC[C@@H](F)C2)c1 (single isomer, unassigned) [Example C58, 1-[cis-3-fluorocyclopentyl]-2-[(4-methyl-1H-pyrazol-1-yl)methyl]-1H-imidazo[4,5-c]quinoline-8-carbonitrile]	7.59	7.66	–	–
C[C@@H]1C[C@H](n2c(Cc3cnccn3)nc3cnc4ccc(C#N)cc4c32)CCO1 [Example 98, 1-[(2R,4R)-2-Methyltetrahydro-2H-pyran-4-yl]-2-(pyrazin-2-ylmethyl)-1H-imidazo[4,5-c]quinoline-8-carbonitrile, formate salt]	8.21	8.12	–	–
Cc1cc(Cc2nc3cnc4ccc(C#N)cc4c3n2[C@@H]2CCC[C@@H]2F)no1 (single isomer, unassigned; ent-2) [Example 147, 1-(cis-2-fluorocyclopentyl)-2-[(5-methyl-1,2-oxazol-3-yl)methyl]-1H-imidazo[4,5-c]quinoline-8-carbonitrile, ENT-2]	7.65	7.84	–	–
C[C@@H]1C[C@H](n2c(Cc3cc(=O)n4ccccc4n3)nc3cnc4ccc(Cl)cc4c32)CCO1 [Example 164, 2-({8-chloro-1-[(2R,4R)-2-methyltetrahydro-2H-pyran-4-yl]-1H-imidazo[4,5-c]quinolin-2-yl}methyl)-4H-pyrido[1,2-a]pyrimidin-4-one, formate salt]	8.21	8.23	–	–
Cc1cc(Cc2nc3cnc4ccc(C#N)cc4c3n2[C@H]2CCN(C)C2)no1 [Example 218, 2-[(5-methyl-1,2-oxazol-3-yl)methyl]-1-[(3S)-1-methylpyrrolidin-3-yl]-1H-imidazo[4,5-c]quinoline-8-carbonitrile, formate salt]	7.49	7.67	–	–
Cc1cc(Cc2nc3cnc4ccc(C#N)cc4c3n2[C@@H]2CCN(C)C2)no1 [Example 213, 2-[(5-methyl-1,2-oxazol-3-yl)methyl]-1-[(3R)-1-methylpyrrolidin-3-yl]-1H-imidazo[4,5-c]quinoline-8-carbonitrile, formate salt]	8.15	8.47	–	–
Cc1cc(Cc2nc3cnc4ccc(C#N)cc4c3n2[C@H]2CC[C@](C)(O)CC2)no1 [Example 247, 1-(trans-4-hydroxy-4-methylcyclohexyl)-2-[(5-methyl-1,2-oxazol-3-yl)methyl]-1H-imidazo[4,5-c]quinoline-8-carbonitrile, formate salt]	7.23	7.07	–	–
CCc1nn2cc(Cc3nc4cnc5ccc(C#N)cc5c4n3[C@@H]3CCO[C@H](C)C3)nc2s1 [Example 156, 2-[(2-ethylimidazo[2,1-b][1,3,4]thiadiazol-6-yl)methyl]-1-[(2R,4R)-2-methyltetrahydro-2H-pyran-4-yl]-1H-imidazo[4,5-c]quinoline-8-carbonitrile, formate salt]	8.37	8.32	–	–
CC(F)(F)Cn1c(Cn2cc(C(F)(F)F)cn2)nc2cnc3ccc(C#N)cc3c21 [Example 227, 1-(2,2-difluoropropyl)-2-{[4-(trifluoromethyl)-1H-pyrazol-1-yl]methyl}-1H-imidazo[4,5-c]quinoline-8-carbonitrile]	7.97	8.04	–	–
C[C@@H]1C[C@H](n2c(Cc3csnn3)nc3cnc4ccc(C#N)cc4c32)CCO1 [Example 195, 1-[(2R,4R)-2-methyltetrahydro-2H-pyran-4-yl]-2-(1,2,3-thiadiazol-4-ylmethyl)-1H-imidazo[4,5-c]quinoline-8-carbonitrile]	8.64	8.46	–	–
Cc1cc(Cc2nc3cnc4ccc(C#N)cc4c3n2[C@H]2CC[C@@H](F)C2)no1 (single isomer, unassigned) [Example C66]	7.37	7.53	–	–
Cc1cn(Cc2nc3cnc4ccc(F)cc4c3n2[C@@H]2CCO[C@H](C)C2)nn1 [Example 199, 8-fluoro-1-[(2R,4R)-2-methyltetrahydro-2H-pyran-4-yl]-2-[(4-methyl-1H-1,2,3-triazol-1-yl)methyl]-1H-imidazo[4,5-c]quinoline]	7.93	7.99	–	–
Cc1nn2cc(Cc3nc4cnc5ccc(C#N)cc5c4n3[C@@H]3CCO[C@H](C)C3)nc2s1 [Example 157, 2-[(2-methylimidazo[2,1-b][1,3,4]thiadiazol-6-yl)methyl]-1-[(2R,4R)-2-methyltetrahydro-2H-pyran-4-yl]-1H-imidazo[4,5-c]quinoline-8-carbonitrile, formate salt]	8.42	8.40	–	–
Cc1cnn(Cc2nc3cnc4ccc(C#N)cc4c3n2[C@@H]2CCN(C)C2)c1 [Example 194, 2-[(4-methyl-1H-pyrazol-1-yl)methyl]-1-[(3R)-1-methylpyrrolidin-3-yl]-1H-imidazo[4,5-c]quinoline-8-carbonitrile]	7.60	7.70	–	–
Cc1cc(Cc2nc3cnc4ccc(C#N)cc4c3n2[C@@H]2CC[C@H](F)C2)no1 (single isomer, unassigned) [Example 97]	8.11	8.29	–	–
Cc1cc(Cc2nc3cnc4ccc(C#N)cc4c3n2C2CCC(F)C2)on1 (single isomer, unassigned; ent-2) [enantiomer of Example 118, 1-(cis-3-fluorocyclopentyl]-2-[(3-methyl-1,2-oxazol-5-yl)methyl]-1H-imidazo[4,5-c]quinoline-8-carbonitrile, ENT-2]	–	–	7.58	7.65
C[C@@H]1C[C@H](n2c(Cc3cn4ncsc4n3)nc3cnc4ccc(C#N)cc4c32)CCO1 [Example 149, 2-(imidazo[2,1-b][1,3,4]thiadiazol-6-ylmethyl)-1-[(2R,4R)-2-methyltetrahydro-2H-pyran-4-yl]-1H-imidazo[4,5-c]quinoline-8-carbonitrile]	8.67	8.69	–	–
C[C@@H]1C[C@H](n2c(Cn3cccn3)nc3cnc4ccc(Cl)cc4c32)CCO1 [Example 130, 8-chloro-1-[(2R,4R)-2-methyltetrahydro-2H-pyran-4-yl]-2-(1H-pyrazol-1-ylmethyl)-1H-imidazo[4,5-c]quinoline, formate salt]	8.42	8.46	–	–
Cc1nnn(Cc2nc3cnc4ccc(Cl)cc4c3n2[C@@H]2CCO[C@H](C)C2)n1 [Example 206, 8-chloro-1-[(2R,4R)-2-methyltetrahydro-2H-pyran-4-yl]-2-[(5-methyl-2H-tetrazol-2-yl)methyl]-1H-imidazo[4,5-c]quinoline]	8.02	7.98	–	–
